The record followed here is publication PMC9953468, “In Silico, In Vitro, and Ex Vivo Biological Activity of Some Novel Mebeverine Precursors” (Biomedicines, 2023).

Usually IC50 stands for the concentration needed to halve the response being measured.

Each structure is given as a SMILES string. Counter-ions that a name gives are not always drawn. Like-named read-outs stand apart in the source and are kept apart here.

The test system of series [1] is Eighteen tested microorganisms (Gram-positive bacteria, Gram-negative bacteria, yeasts, fungi). The series is described as follows: Antimicrobial activity, agar well diffusion method, whole panel. Type of series: cell-based. The settings on record: whole panel of tested microorganisms, in words. From the text:
Eighteen tested microorganisms including five Gram-positive bacteria (Bacillus subtilis ATCC 6633, Bacillus amyloliquefaciens 4BCL-YT, Staphylococcus aureus ATCC 25923, Listeria monocytogenes NBIMCC 8632, Enterococcus faecalis ATCC 19433), five Gram-negative bacteria (Salmonella enteritidis ATCC 13076, Klebsiella sp.—clinical isolate, Escherichia coli ATCC 25922, Proteus vulgaris ATCC 6380, Pseudomonas aeruginosa ATCC 9027), two yeasts (Candida albicans NBIMCC 74, Saccharomyces cerevisiae ATCC 9763) and six fungi (Aspergillus niger ATCC 1015, Aspergillus flavus, Penicillium sp., Rhizopus sp., Mucor sp.—plant isolates, Fusarium moniliforme ATCC 38932) from the collection of the Department of Microbiology at the University of Food Technologies—Plovdiv, Bulgaria, were selected for the antimicrobial activity test.
The antimicrobial activity of the samples was determined by the agar well diffusion method. The tested bacteria B. subtilis and B. amyloliquefaciens were cultured on LBG agar at 30 °C. The test bacteria S. aureus, L. monocytogenes, E. faecalis, S. enteritidis, Klebsiella sp., E. coli, P. vulgaris and P. aeruginosa were cultured on LBG agar at 37 °C for 24 h. The yeast C. albicans was cultured on MEA at 37 °C, while S. cerevisiae was cultured on MEA at 30 °C for 24 h. The fungi A. niger, A. flavus, Penicillium sp., Rhizopus sp., Mucor sp., and F. moniliforme were grown on MEA at 30 °C for 7 days or until sporulation.
The inocula of the tested bacteria/yeasts were prepared by homogenization of a small amount of biomass in 5 mL of sterile 0.5% NaCl. […] The number of viable cells and fungal spores was determined using a bacterial counting chamber Thoma (Poly-Optik, GmbH, Bad Blankenburg, Germany). […] Next, the inoculated media were transferred in a quantity of 18 mL in sterile Petri plates (d = 90 mm) (Gosselin™, Hazebrouck, France) and allowed to harden. […]
The antimicrobial activity was determined by measuring the diameter of the inhibition zones around the wells on the 24th and 48th h of incubation. […]

Series [2] concerns 5-HT3 receptor. Description: Immunohistochemical analysis of 5-HT3 expression in gastric SM strips. Also on record: species or system Wistar rats. The conditions noted are these: immunohistochemical staining after 1 h incubation, in words. How it is done: […] Then, each SM strip was fixed in 10% neutral buffer formalin for 24–48 h and submitted for standard processing with hematoxylin and eosin staining.
The SM fragments from a rat’s gastric wall were fixed in a 10% neutral formalin solution and embedded in paraffin. Paraffin sections of 5 μm thickness were subjected to hematoxylin and eosin (H-E) staining for histochemical analysis.
Sections of the SM fragments from the wall of a rat’s stomach with a thickness of 5 µm were deparaffinized, then subjected to antigenic detection of the epitopes with citrate buffer, and an endogenous peroxidase blockade was made with hydrogen […] 3%, a kit was used to block the endogenous biotin, and a reagent was used to block non-specific binding (Superblock, Scy Tek, Santa Cruz Biotech. Inc. Heidelberg, Germany) follows incubate for 24 h (at 4 °C) with monoclonal mouse anti-5-HT3, next incubated with a secondary antibody: biotinylated anti-rabbit for 10 min at room temperature. The reaction was visualized with 3,3′-diaminobenzidine tetrachloride and counterstained with Mayer’s hematoxylin.
A quantitative and statistical analysis of immunohistochemical reaction using the Olympus DP-Soft image system (version 4.1 for Windows) was carried out on a Microphot-SA (Nikon, Japan) microscope equipped with a Camedia-5050 Z digital camera (Olympus, Japan). The analysis was performed on sections from the SM strips from the stomach of Wistar rats (n = 6 for each group). Five sections of the SM strips were measured, and the percentage of cells expressing 5-HT3 in the circular and longitudinal layer of SM cells, as well as in the myenteric plexus of the stomach, was determined. Each antibody was analyzed for five fields, in each of them the average number of cells with positive unit area response at ×200 magnification.

A short description of series [3]: MTT cell viability assay. Type of series: cell-based. The conditions noted are these: mouse, CCL-1 normal fibroblast cells, CCL-1, normal murine fibroblast cells, read-out: In vitro cytotoxicity (IC50). As to the method:
(§1) In order to evaluate the in vitro biocompatibility of the experimental compounds, a series of cell viability assays were performed against human malignant leukemic cell lines (LAMA-84, K-562) as well as normal murine fibroblast cells (CCL-1). All cell lines were purchased from the German Collection of Microorganisms and Cell Cultures (DSMZ GmbH, Braunschweig, Germany). Cell cultures were cultivated in a growth medium RPMI 1640 supplemented with 10% fetal bovine serum (FBS), 5% L-glutamine, and incubated under standard conditions of 37 °C and 5% humidified CO2 atmosphere.
(§2) The experimental design involved a number of cytotoxicity assays that measured cell growth inhibition by the newly synthesized compounds. Cell viability was evaluated using a standard MTT-based colorimetric assay. Exponential-phased cells were harvested and seeded (100 μL/well) in 96-well plates at the appropriate density (3 × 10^5) for the suspension cultures (LAMA-84 and K-562) and 1.5 × 10^5 for the adherent one (CCL-1). Cells were treated and incubated with various concentrations of the experimental compounds in the concentration range of 400-6.25 µM. After exposure time of 72 h, a filter-sterilized MTT substrate solution (5 mg/mL in PBS) was added to each well of the culture plate. A further 1–4 h incubation allowed for the formation of purple insoluble formazan precipitates. The latter were dissolved in isopropyl alcohol solution containing 5% formic acid prior to absorbance measurement at 550 nm using a microplate reader (Labexim LMR-1). Collected absorbance values were blanked against MTT and isopropanol solution and normalized to the mean value of the untreated control (100% cell viability). Semi-logarithmic “dose–response” curves were constructed and the half-inhibitory concentrations of the screened compounds against each tested cell line were calculated. Values of p ≤ 0.05 were considered statistically significant.
On the technique in general: Tetrazolium assays rely on reduction of a dye to a coloured formazan, in cell work by metabolically active cells.

Series [4] has as its system K-562. Description: MTT cell viability assay. Type of series: cell-based, human. The settings on record: K-562, Blast phase CML (bcr-abl+), 72 h, ± SD. How it is done:
as §1, §2

Series [5] concerns LAMA-84. The series is described as follows: MTT cell viability assay. The series is classed as cell-based, human. The settings on record: LAMA-84, CML in blast crisis (bcr-abl+), 72 h, ± SD. How it is done: as §1, §2
Series [6] can be described thus: MTT cell viability assay. The series is classed as cell-based, human. The settings on record: human, ± SD, read-out: In vitro cytotoxicity (IC50). As to the method:
as §1, §2

Turning to `CCN(CCCCOC(=O)c1ccc(OC)c(OC)c1)C(C)Cc1ccc(OC)cc1` (stereo not shown) [Mebeverine hydrochloride, mebeverine hydrochloride, reference compound], the antimicrobial activity result in series [1] is “did not show any antimicrobial activity”. Also, the “5-HT3 expression in SM preparations” value in series [2] is “weak 5-HT3 expression observed”. The IC50 at 72 h in series [3] is more than 300 µM; in series [6] (K-562 cells (blast phase chronic myeloid leukemia), K-562, Blast phase CML (bcr-abl+)), 85.4 ± 8.3 µM; in series [6] (LAMA-84, CML in blast crisis (bcr-abl+)), 72 ± 6.2 µM. Further, the “In vitro cytotoxicity (IC50)” value in series [4] and in series [5] was “just under the hundred-micromolar range” in each case.
